Experimental data as given in US7378385B2, “Role for GLP-1 to mediate responses to disparate stressors” (University of Cincinnati, priority 2002, dated 2008).
Where no end group is shown, it is not given here.

Key:
HPA axis [1] = assay: Effect of central (intracerebroventricular) GLP-1 on the HPA axis, plasma ACTH and corticosterone by RIA; type: in vivo, rats
Description: Central GLP1 effects on the HPA axis were assayed as described in Kinzig et al. (2003) J. Neuroscience 21:6163-6170, herein incorporated by reference in its entirety). Ten male Long-Evans rats (275-350 gm) were housed individually in plastic tub cages with a 12 hour light/dark cycle. […] Catheters were made of sterile SILASTIC tubing, the distal end beveled, a small piece sterile suture tied at 4 cm from the distal end, and filled with heparinized saline. The catheter was attached to a 1 ml syringe filled with heparinized saline at the end that remained at the head. Under ketamine ([…], i.p.) and xylazine (1.5 mg/kg i.p.) anesthesia, the rat's abdomen and top of the head were shaved. A midline incision (approx. 8 cm in length) was made beginning at the sternum. An additional incision was made on the skull. The catheter was subcutaneously from the skull incision to the muscle wall lining the intraperitoneal cavity with a pair of straight hemostats. The muscle wall underlying the abdominal skin incision was opened. A small incision was made in the right muscle wall, through which the catheter was pulled into the intraperitoneal cavity. […] The vein was then punctured with a 21 gauge needle, and the catheter was quickly inserted to the 4 cm mark. Heparinized saline (0.5 ml) was slowly pushed through the inserted catheter. One suture was made in the dorsal muscle wall immediately to the right of the insertion site. […]
Ten days after surgery, cannula placement was verified by administering angiotensin II through the cannula (intracerebroventricular, (i3vt)). Catheter patency was also determined 10 days after surgery. […]
Plasma was extracted and subsequently assayed (RIA) for ACTH and corticosterone (CORT). Results from one such experiment are presented in FIG. 1, panels A and B. Results were analyzed by two-way ANOVA and Tukey's HSD test.
Plasma ACTH and corticosterone concentrations were determined using ^125I-labeled rat ACTH and corticosterone kits according to manufacturers' instructions. […]

HPA axis [2] = assay: Peripheral (intraperitoneal) GLP-1 effects on the HPA axis; type: in vivo, rats; conditions: peripheral administration of GLP-1
Description: Plasma ACTH and corticosterone concentrations were determined using ^125I-labeled rat ACTH and corticosterone kits according to manufacturers' instructions. The limits of detection for each kit are 15 pg/ml and 8 ng/ml, respectively. For both ACTH and corticosterone assays, all plasma samples were run in duplicate in single assays.
An additional group of six rats was prepared as described in example 1 to test the effects of peripheral administration of GLP-1 on ACTH and corticosterone (CORT) release. Using a within-subjects design, rats were administered saline and 10, 100, and 500 μg/kg GLP-1 intraperitoneally. Each rat received each treatment in a randomized manner, with no less than 5 days between treatments.

[3] = system: mammalian central nervous system; assay: Relative potency in the mammalian central nervous system; type: in vivo

Row | Substance | activation of the HPA axis, dose compared with dose required to decrease food intake (HPA axis [1]; GLP-1 acting in the CNS) | activity of the HPA axis (HPA axis [1]; central administration of GLP-1) | stress response (HPA axis [1]; in vivo) | activity of the HPA axis (HPA axis [2]) | potency relative to GLP-1(7-36) amide [3]
1 | GLP-1: post-translational product of preproglucagon; ligand of the GLP-1 receptor (HAEGTFTSDVSSYLEGQAAKEFIAWLVKGR; ends and bridges not checked; UniProt P01275 98-127, looked up) | potent activation of the HPA axis at doses lower than that required to decrease food intake | excites the HPA axis | increases the stress response | does not | –
2 | exendin 4: GLP-1 receptor agonist | – | – | – | – | at least 20 times
